Test results: patent publication US20190142800A1, “SYNERGISTIC ANTIFUNGAL COMPOSITIONS AND METHODS THEREOF” (VYOME THERAPEUTICS LIMITED, priority 2016, published 2019)

Assays:
[1] = test system: C. albicans; assay: Checkerboard assay of clotrimazole and oleic acid (C18) in C. albicans; assay type: cell-based, Candida albicans; settings: clotrimazole + oleic acid, FIGS. 1B and 1C
Description: The synergy is measured by determining the fractional inhibitory concentration (FIC) value of the combination. This experimental set up, called checkerboard method, allows measurement of a desired effect (inhibition of fungal growth in this case) at different combinations of various concentrations of the two agents (antifungal agent and fatty acid/ester). […] No agent is added to the penultimate column on the right and the bottom row. The final column on the right is used for growth control (only inoculum in broth) and sterility control (broth alone, no inoculum). […] FIC value for each agent in a particular well of the checkerboard layout was calculated by dividing the agent concentration in that well by the established MIC value of the agent against the test organism (Hsieh et al., Synergy assessed by checkerboard: A critical Analysis, Diagn. Microbiol. Infect Dis. (1993) 16:343-349). FIC values for both agents in a particular well were calculated in this way followed by determination of the FIC index (sum of the FICs of each drug in the concerned well). […] Agents Chemother. (2010) 54(2): 602-609].

[2] = test system: Trichophyton rubrum (ATCC-28188); assay: Checkerboard assay of fatty acid/ester with antifungals on Trichophyton rubrum (ATCC 28188); assay type: cell-based; parameters: key to FIC index: FIC index = sum of FICs; FIC = agent conc in well / agent MIC; settings: for MIC: Trichophyton rubrum, ATCC28188, agent alone
[3] = test system: azole resistant C. albicans MTCC 227; assay: Checkerboard assay on azole resistant C. albicans MTCC 227; assay type: cell-based, Candida albicans; settings: for MIC: Candida albicans, MTCC227, agent alone
[4] = agent's MIC in combination antifungal + caprylic acid (partner: other agent of same combination no.)
[5] = agent's MIC in combination antifungal + glyceryl monocaprylate (partner: other agent of same combination no.)
[6] = agent's MIC in combination antifungal + lauric acid (partner: other agent of same combination no.)
[7] = agent's MIC in combination antifungal + propylene glycol monolaurate (partner: other agent of same combination no.)
[8] = antifungal in combination with caprylic acid
[9] = antifungal in combination with glyceryl monocaprylate
[10] = antifungal in combination with lauric acid
[11] = antifungal in combination with propylene glycol monocaprylate
[12] = antifungal in combination with propylene glycol monolaurate
[13] = combination antifungal + caprylic acid
[14] = combination antifungal + glyceryl monocaprylate
[15] = combination antifungal + lauric acid
[16] = combination antifungal + propylene glycol monolaurate
[17] = antifungal in combination with undecylenic acid

MIC ([2]; Table 1, caprylic acid series): 0.6 µg/mL | MIC ([2]; Table 2, propylene glycol monocaprylate series): 0.6 µg/mL | MIC ([2]; Table 3, glyceryl monocaprylate series): 0.6 µg/mL | MIC ([2]; Table 5, lauric acid (C12) series): 0.5 µg/mL | MIC ([2]; Table 6, propylene glycol monolaurate series): 0.5 µg/mL | Combination MIC [2, 4]: 0.075 µg/mL | Combination MIC [2, 5]: 0.075 µg/mL | Combination MIC [2, 6]: 0.125 µg/mL | Combination MIC [2, 7]: 0.125 µg/mL | MIC ([3]; Table 9, caprylic acid (C8) series): 8 µg/mL | MIC ([3]; Table 10, propylene glycol monocaprylate series): 16 µg/mL | MIC ([3]; Table 11, glyceryl monocaprylate series): 16 µg/mL | MIC ([3]; Table 12, undecylenic acid (C11) series): 16 µg/mL | MIC ([3]; Table 13, lauric acid (C12) series): 8 µg/mL | MIC ([3]; Table 14, propylene glycol monolaurate series): 16 µg/mL | Combination MIC [3, 4]: 0.25 µg/mL | Combination MIC [3, 5]: 4 µg/mL | Combination MIC [3, 6]: 1 µg/mL | Combination MIC ([3]; agent's MIC in combination antifungal + propylene glycol monocaprylate (partner: other agent of same combination no.)): 4 µg/mL | Combination MIC [3, 7]: 8 µg/mL | Combination MIC ([3]; agent's MIC in combination antifungal + undecylenic acid (partner: other agent of same combination no.)): 2 µg/mL
SMILES: Clc1ccccc1C(c1ccccc1)(c1ccccc1)n1ccnc1 [Clotrimazole]
combination activity (interaction) with oleic acid (C18) [1]: antagonistic effect | FIC index [2, 8]: 0.375 | Interaction [2, 8]: Synergistic (Combinations that gave FIC indices less than 1 were designated “synergistic”) | FIC index [2, 9]: 0.625 | Interaction [2, 9]: Synergistic (Combinations that gave FIC indices less than 1 were designated “synergistic”) | FIC index [2, 10]: 0.75 | Interaction [2, 10]: Synergistic (Combinations that gave FIC indices less than 1 were designated “synergistic”) | Interaction [2, 11]: Synergistic (Combinations that gave FIC indices less than 1 were designated “synergistic”) | FIC index [2, 12]: 0.5 | Interaction [2, 12]: Synergistic (Combinations that gave FIC indices less than 1 were designated “synergistic”) | FIC [2, 13]: 0.125 | FIC [2, 14]: 0.125 | FIC [2, 15]: 0.25 | FIC [2, 16]: 0.25 | FIC index [3, 8]: 0.093 | Interaction [3, 8]: Synergistic (Combinations that gave FIC indices less than 1 were designated “synergistic”) | FIC index [3, 9]: 0.5 | Interaction [3, 9]: Synergistic (Combinations that gave FIC indices less than 1 were designated “synergistic”) | FIC index [3, 10]: 0.187 | Interaction [3, 10]: Synergistic (Combinations that gave FIC indices less than 1 were designated “synergistic”) | FIC index [3, 11]: 0.312 | Interaction [3, 11]: Synergistic (Combinations that gave FIC indices less than 1 were designated “synergistic”) | FIC index [3, 12]: 0.515 | Interaction [3, 12]: Synergistic (Combinations that gave FIC indices less than 1 were designated “synergistic”) | FIC index [3, 17]: 0.187 | Interaction [3, 17]: Synergistic (Combinations that gave FIC indices less than 1 were designated “synergistic”) | FIC [3, 13]: 0.031 | FIC [3, 14]: 0.25 | FIC [3, 15]: 0.125 | FIC ([3]; combination antifungal + propylene glycol monocaprylate): 0.25 | FIC [3, 16]: 0.5 | FIC ([3]; combination antifungal + undecylenic acid): 0.125
